Measurements: patent US20260263485A1, “AMINOSTEROL COMPOUNDS, AMINOSTEROL-CYCLODEXTRIN FORMULATIONS, AND METHODS OF USING THE SAME” (Enterin, Inc., priority 2022, published 2026)
Values joined by “and” are separate entries in the source; they are usually repeats but may differ in a detail not shown here. Equal values may be shown once. Read-outs that look alike come from different tables or passages of the source.

Legend:
[1] = Plasma pharmacokinetics of aqueous ENT-03S solution without cyclodextrin after subcutaneous injection; type: in vivo, rat; conditions: 2 mg/ml, 10 mg/kg SC, male SD rats
Procedure: The benefits provided by the aminosterol-cyclodextrin formulation disclosed herein can be appreciated by comparing the pharmacokinetics of an aqueous solution of ENT-03S in the absence of cyclodextrin at a concentration of ENT-03S of 2 mg/ml at […].
(§1) The dose chosen was the maximum ENT-03S concentration that could be delivered to the rat without causing visible local tissue necrosis.
The experiment was conducted in male Sprague-Dawley rats following the same protocol as above. The formulation was administered subcutaneously at a dose of 10 mg/kg. The data obtained are shown below in Tables 19 and 20 and FIG. 35.

[2] = male, Sprague-Dawley, in vivo, sc, 10 mg/kg
Procedure: An equal volume of rat bile samples (50 μL) were taken from different animals at different time points following administration of ENT-03S. 50 μL of matrix was mixed with 200 μL of methanol (containing 0.1% formic acid), vortexed for 100 seconds and then centrifuged at 16,000 g for 10 minutes at 4° C. to precipitate proteins. 100 μL of the supernatant was transferred to a new tube and the supernatant diluted with 100 μt, pure water, mixed well and analyzed using UPLC-MS/MS.
The peak area percentages of parent drug and each metabolite were determined by semi-quantitative estimation using the extracted ion chromatogram peak areas of all detected drug-related material in the sample. Metabolites with percentage of peak area>10% are proposed as major metabolites of ENT-03S.
Bile samples were obtained from male rats at various time points following a 10 mg/kg dose of ENT-03S via subcutaneous administration in bile dicut cannulated male SD rats as detailed in Table 10. The samples were transferred on dry ice and stored at −80° C. prior to use
Study design: An equal volume of rat bile samples (50 μL) were taken from different animals at different time points following administration of ENT-03S in study No.: PII-DMPK-ETR-21-001. 50 μL of matrix was mixed with 200 μL of methanol (containing 0.1% formic acid), vortexed for 100 seconds and then centrifuged at 16,000 g for 10 minutes at 4° C. to precipitate proteins. 100 μL of the supernatant was transferred to a new tube and the supernatant diluted with 100 μL pure water, mixed well and analyzed using UPLC-MS/MS.
Sample preparation: For bile samples, an equal volume of samples (50 μL) are taken from different animals at various time points after the administration of each group of samples, and the same group of samples are mixed thoroughly.
Data Analysis: UPLC-MS/MS was used for sample analysis, and was conducted using a DionexUltiMate 3000/Vanquish UHPLC system. For mass spectrometry (MS), all analysis was carried out with a Q-Exactive instrument (Thermo Fisher). A full MS scan was used to trigger the data dependent acquisition (DDA) of MS/MS scan spectra. Compound dependent parameters were optimized by ENT-03S. DDA settings were used to trigger acquisition of MS^2 spectra for ions whose intensity is in top 5 of all, with exclusion of impurity ions (m/z 149.02332, m/z 279.15909, m/z 391.28429 and m/z 445.12003), after 3 occurrences for 10 s. Dynamic exclusion settings: automatic exclusion of the ions which have been taken.
Data Analysis: The analysis was carried out using a thermo Fisher Scientific Q Exactive instrument. Full MS scan was used to trigger the data dependent acquisition (DDA) of MS/MS scan spectra. Compound dependent parameters were optimized by ENT-03S. DDA settings were used to trigger acquisition of MS^2 spectra for ions whose intensity was in the top 5 of all, with exclusion of ions (m/z 149.02332, m/z 279 1 5909, m/z 391.28429 and m/z 445 12003), after 3 occurrences for 10 s. Data was acquired and processed using Xcalibur v4.1 software (Thermo Fisher Scientific) and Compound Discoverer 3.1 (Thermo Fisher Scientific) and Excel (Microsoft 2016).

[3] = Identification of metabolites of ENT-03S in rat plasma and urine samples (UPLC-MS/MS); type: in vivo
Procedure: An equal number of rat urine (50 μL) were taken from different animals at various time points following administration of ENT-03S. For plasma samples, the Hamilton pooling method was used.
Study design: An equal number of rat urine (50 μL) samples were taken from different animals at various time points from study No.: PH-DMPK-ETR-21-001 following administration of ENT-03S. For plasma samples, the Hamilton pooling method was used.
The samples were then analysed using UPLC-MS/MS.
Compound dependent parameters were optimized by ENT-03S.

[4] = Subcutaneous injection into a human subject (local tolerability); type: in vivo
Procedure: […] The contents of the syringe were injected subcutaneously in the abdominal area of a human subject creating a visible swelling.

[5] = Visible local tissue necrosis on subcutaneous delivery to the rat; type: in vivo; conditions: aqueous solution in the absence of cyclodextrin, pH 74
Excerpt: as §1

[6] = Plasma pharmacokinetics of ENT-03S cyclodextrin formulation after subcutaneous injection; type: in vivo, rat; conditions: 20% beta-cyclodextrin formulation, 10 mg/kg SC, male SD rats, individual rats, 10 mg/kg
Procedure: In this example, ENT-03S was formulated with unmodified beta-cyclodextrin at a concentration of 25 mg/ml ENT-03, and 20% beta-cyclodextrin, pH 7.5, buffered with phosphate.
Male Sprague-Dawley rats were administered the ENT-03-cyclodextrin formulation subcutaneous at a dose of 10 mg/kg. Blood samples were drawn from the tail vein at various times, the concentrations of ENT-03 determined, and PK parameters determined.

[7] = 0. 1l of aqueous ENT-03S 2 mg/ml, pH 74, no cyclodextrin

For `C[C@H](CCC[C@H](C)C(=O)O)[C@H]1CCC2C3C(CC[C@@]21C)[C@@]1(C)CC[C@H](NCCCNCCCCNCCCN)C[C@@H]1C[C@H]3O` (stereo partly drawn) [ENT-03S, (2S,6R)-6-((3S,5R,7R,10S,13R,17R)-3-((3-((4-((3-aminopropyl)amino)butyl)amino)propyl)amino)-7-hydroxy-10,13-dimethylhexadecahydro-1 H-cyclopenta[a]phenanthren-17-yl)-2-methylheptanoic acid], the “Concentration (ng/ml) Rat 1-3” value ([1]; 0.25 h, individual rats, 10 mg/kg) was 1150 ng/mL and 702 ng/mL and 1930 ng/mL, the “Concentration (ng/ml) Rat 1-3” value ([1]; 0.5 h, individual rats, 10 mg/kg) was 2300 ng/mL and 1490 ng/mL and 3220 ng/mL and the “Concentration (ng/ml) Rat 1-3” value ([1]; 1 h, individual rats, 10 mg/kg) was 4910 ng/mL and 2590 ng/mL and 5570 ng/mL. For the same molecule, the “Concentration (ng/ml) Rat 1-3” value ([1]; 2 h, individual rats, 10 mg/kg) was 5900 ng/mL and 8620 ng/mL, the “Concentration (ng/ml) Rat 1-3” value ([1]; 4 h, individual rats, 10 mg/kg) was 10800 ng/mL and 16100 ng/mL and the “Concentration (ng/ml) Rat 1-3” value ([1]; 8 h, individual rats, 10 mg/kg) was 19600 ng/mL and 24800 ng/mL. For the same molecule, the “Concentration (ng/ml) Rat 1-3” value ([1]; 24 h, individual rats, 10 mg/kg) was 40000 ng/mL and 54300 ng/mL, the AUClast ([1]; individual rats, 10 mg/kg) was 559.927 µg·h/mL and 749.498 µg·h/mL and the AUClast/D ([1]; individual rats, 10 mg/kg) was 67500 kg·ng·h/mL/mg and 56000 kg·ng·h/mL/mg and 75000 kg·ng·h/mL/mg. The Cmax ([1]; individual rats, 10 mg/kg) was 40000 ng/mL and 54300 ng/mL, the AUClast/D Mean ([1]; mean) was 66200 kg·ng·h/mL/mg and the concentration at 0.25 h ([1]; male, Sprague-Dawley, rat, plasma, sc, 10 mg/kg, 0.25 h, mean) was 1260 ng/mL. It also gave a concentration at 0.5 h ([1]; male, Sprague-Dawley, rat, plasma, sc, 10 mg/kg, 0.5 h, mean) of 2340 ng/mL, a concentration at 1 h ([1]; male, Sprague-Dawley, rat, plasma, sc, 10 mg/kg, 1 h, mean) of 4360 ng/mL and a concentration at 2 h ([1]; male, Sprague-Dawley, rat, plasma, sc, 10 mg/kg, 2 h, individual rats, read-out: Concentration (ng/ml) Rat 1-3) of 8380 ng/mL. The concentration at 2 h ([1]; male, Sprague-Dawley, rat, plasma, sc, 10 mg/kg, 2 h, mean, read-out: Concentration Mean) was 7630 ng/mL, the concentration at 4 h ([1]; male, Sprague-Dawley, rat, plasma, sc, 10 mg/kg, 4 h, individual rats, read-out: Concentration (ng/ml) Rat 1-3) was 14100 ng/mL and the concentration at 4 h ([1]; male, Sprague-Dawley, rat, plasma, sc, 10 mg/kg, 4 h, mean, read-out: Concentration Mean) was 13700 ng/mL. The concentration at 8 h ([1]; male, Sprague-Dawley, rat, plasma, sc, 10 mg/kg, 8 h, individual rats, read-out: Concentration (ng/ml) Rat 1-3) was 26900 ng/mL, the concentration at 8 h ([1]; male, Sprague-Dawley, rat, plasma, sc, 10 mg/kg, 8 h, mean, read-out: Concentration Mean) was 23800 ng/mL and the concentration at 24 h ([1]; male, Sprague-Dawley, rat, plasma, sc, 10 mg/kg, 24 h, individual rats, read-out: Concentration (ng/ml) Rat 1-3) was 43300 ng/mL. The concentration at 24 h ([1]; male, Sprague-Dawley, rat, plasma, sc, 10 mg/kg, 24 h, mean, read-out: Concentration Mean) was 45900 ng/mL, the Tmax ([1]; male, Sprague-Dawley, rat, plasma, sc, 10 mg/kg, individual rats) was 24 h and the AUC(0-t) ([1]; male, Sprague-Dawley, rat, plasma, sc, 10 mg/kg, individual rats, read-out: AUClast) was 675 µg·h/mL. It also gave a Cmax ([1]; male, Sprague-Dawley, rat, plasma, sc, 10 mg/kg, individual rats, read-out: Cmax) of 43300 ng/mL, an AUC(0-t) ([1]; male, Sprague-Dawley, rat, plasma, sc, 10 mg/kg, mean, read-out: AUClast Mean) of 662 µg·h/mL and a Cmax ([1]; male, Sprague-Dawley, rat, plasma, sc, 10 mg/kg, mean, read-out: Cmax Mean) of 45900 ng/mL. The “Metabolite peak area Rat Bile” value [2] was 1.70E+07, the “Metabolite peak area percentages Rat Bile” value [2] was 13.77% and the “Metabolite peak area percentages Rat Plasma Male” value ([3]; pooled male SD rat plasma 0.25-24 h after 10 mg/kg ENT-03S SC, relative XIC peak area) was 91.29%. For the same molecule, the “Metabolite peak area Rat Plasma Male” value ([3]; pooled male SD rat plasma after 10 mg/kg ENT-03S SC, XIC peak area) was 6.03E+08, the “Metabolite peak area percentages Rat Urine Male” value ([3]; pooled male SD rat urine 0-24 h after 10 mg/kg ENT-03S SC, relative XIC peak area, “—”: not observed) was 71.94% and the “Metabolite peak area Rat Urine Male” value ([3]; pooled male SD rat urine after 10 mg/kg ENT-03S SC, XIC peak area, “—”: not observed) was 1.62E+06. For the same molecule, the “local swelling, redness, and warmth” value [4, 7] was “lasted for several days”, the pain on injection [4, 7] was “severe pain within seconds that persisted for several hours” and the “disappearance of swelling at injection site” value ([4]; 1 ml of Example 4 formulation (ENT-03S 50 mg/ml, 25% 2-hydroxypropyl β-cyclodextrin), abdominal area) was “Over the course of an hour, the swelling disappeared”. For the same molecule, the “sensation on subcutaneous injection” value ([4]; 1 ml of Example 4 formulation (ENT-03S 50 mg/ml, 25% 2-hydroxypropyl β-cyclodextrin, phosphate, pH 7.4-7.6), abdominal area) was “mild stinging sensation was noted, which disappeared within a few minutes”, the “maximum ENT-03S concentration that could be delivered to the rat without causing visible local tissue necrosis” value [5] was 2 mg/mL and the “Concentration (ng/ml) Rat 1-3” value ([6]; 0.25 h) was 22000 ng/mL and 20800 ng/mL. The “Concentration (ng/ml) Rat 1-3” value ([6]; 0.5 h) was 27100 ng/mL and 30200 ng/mL and the “Concentration (ng/ml) Rat 1-3” value ([6]; 1 h) was 31700 ng/mL and 33000 ng/mL.
